For nine compounds, inhibition results are on record in ChEMBL document CHEMBL4806968, “Hipk inhibitors and methods of use thereof” (2020).

As usually defined, the inhibition is how much of the control response was suppressed. Lower therefore signals a weak effect.

Experiment [1] addresses T1, Muscle, skeletal receptor tyrosine-protein kinase (Homo sapiens) (UniProt O15146).
T1 sequence (whole entry): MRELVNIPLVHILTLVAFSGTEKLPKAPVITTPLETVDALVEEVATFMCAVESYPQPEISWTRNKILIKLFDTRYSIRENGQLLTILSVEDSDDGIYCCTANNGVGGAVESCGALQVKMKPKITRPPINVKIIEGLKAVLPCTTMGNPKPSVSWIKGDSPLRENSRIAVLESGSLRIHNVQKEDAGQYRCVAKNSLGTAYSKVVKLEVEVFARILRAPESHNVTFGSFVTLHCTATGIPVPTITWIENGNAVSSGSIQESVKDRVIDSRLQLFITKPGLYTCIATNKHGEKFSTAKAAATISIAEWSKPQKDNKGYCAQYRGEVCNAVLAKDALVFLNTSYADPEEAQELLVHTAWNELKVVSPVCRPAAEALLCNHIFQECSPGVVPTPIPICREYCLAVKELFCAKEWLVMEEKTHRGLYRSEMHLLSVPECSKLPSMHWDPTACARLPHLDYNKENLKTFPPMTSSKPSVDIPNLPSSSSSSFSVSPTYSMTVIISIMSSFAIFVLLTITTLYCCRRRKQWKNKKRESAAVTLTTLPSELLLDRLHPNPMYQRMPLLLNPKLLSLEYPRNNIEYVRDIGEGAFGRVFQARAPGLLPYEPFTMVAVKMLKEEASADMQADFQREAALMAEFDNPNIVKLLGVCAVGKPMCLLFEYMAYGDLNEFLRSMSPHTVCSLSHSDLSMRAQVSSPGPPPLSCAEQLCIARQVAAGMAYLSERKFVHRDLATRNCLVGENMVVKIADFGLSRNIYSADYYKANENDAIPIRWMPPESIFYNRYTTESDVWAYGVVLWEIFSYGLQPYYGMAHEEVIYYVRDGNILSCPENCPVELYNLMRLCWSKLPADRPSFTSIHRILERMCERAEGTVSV
Kind of experiment: Inhibition of MUSK (unknown origin) at 0.5 uM relative to control.

The target of experiment [2] is Protein-tyrosine kinase 6 (Homo sapiens) (UniProt Q13882). Kind of experiment: Inhibition of BRK (unknown origin) at 0.5 uM relative to control.
The target in experiment [3] is Tyrosine-protein kinase Lck (Homo sapiens) (UniProt P06239). Kind of experiment: Inhibition of LCK (unknown origin) at 0.5 uM relative to control.
The target in experiment [4] is T2, Ephrin type-A receptor 6 (Homo sapiens) (UniProt Q9UF33).
T2 sequence (whole entry): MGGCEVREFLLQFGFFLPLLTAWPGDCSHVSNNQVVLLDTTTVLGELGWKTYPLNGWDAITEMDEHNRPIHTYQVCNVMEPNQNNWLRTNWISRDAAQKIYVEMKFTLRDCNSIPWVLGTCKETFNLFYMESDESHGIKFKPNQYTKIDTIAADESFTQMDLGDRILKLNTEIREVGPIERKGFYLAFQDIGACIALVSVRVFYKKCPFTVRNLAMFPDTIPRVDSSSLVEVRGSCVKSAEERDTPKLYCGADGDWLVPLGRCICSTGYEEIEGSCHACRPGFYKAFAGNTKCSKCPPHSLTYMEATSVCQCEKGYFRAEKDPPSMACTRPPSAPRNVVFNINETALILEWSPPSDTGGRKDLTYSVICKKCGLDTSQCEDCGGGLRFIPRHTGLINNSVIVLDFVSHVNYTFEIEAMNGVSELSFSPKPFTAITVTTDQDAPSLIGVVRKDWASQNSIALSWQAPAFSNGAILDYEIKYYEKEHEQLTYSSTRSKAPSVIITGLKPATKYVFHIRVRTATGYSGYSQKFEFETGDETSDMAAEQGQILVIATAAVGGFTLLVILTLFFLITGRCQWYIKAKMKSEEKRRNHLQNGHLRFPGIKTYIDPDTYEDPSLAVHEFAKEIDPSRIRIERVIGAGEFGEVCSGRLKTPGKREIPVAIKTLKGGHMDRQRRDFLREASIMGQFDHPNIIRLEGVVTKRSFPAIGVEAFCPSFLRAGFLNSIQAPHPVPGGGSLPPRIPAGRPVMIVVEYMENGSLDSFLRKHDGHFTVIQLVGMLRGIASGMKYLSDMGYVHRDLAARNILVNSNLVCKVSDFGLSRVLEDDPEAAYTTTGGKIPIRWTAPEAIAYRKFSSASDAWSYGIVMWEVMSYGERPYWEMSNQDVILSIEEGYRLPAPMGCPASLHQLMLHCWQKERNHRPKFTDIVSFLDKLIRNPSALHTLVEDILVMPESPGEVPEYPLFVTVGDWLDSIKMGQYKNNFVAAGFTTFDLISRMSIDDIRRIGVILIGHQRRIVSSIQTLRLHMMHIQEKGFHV
The experiment can be described thus: Inhibition of EPHA6 (unknown origin) at 0.5 uM relative to control.

The target of experiment [5] is Receptor-type tyrosine-protein kinase FLT3 (Homo sapiens) (UniProt P36888). Kind of experiment: Inhibition of FLT3 (unknown origin) at 0.5 uM relative to control.
Experiment [6] addresses T3, Discoidin domain-containing receptor 2 (Homo sapiens) (UniProt Q16832).
T3 sequence (whole entry): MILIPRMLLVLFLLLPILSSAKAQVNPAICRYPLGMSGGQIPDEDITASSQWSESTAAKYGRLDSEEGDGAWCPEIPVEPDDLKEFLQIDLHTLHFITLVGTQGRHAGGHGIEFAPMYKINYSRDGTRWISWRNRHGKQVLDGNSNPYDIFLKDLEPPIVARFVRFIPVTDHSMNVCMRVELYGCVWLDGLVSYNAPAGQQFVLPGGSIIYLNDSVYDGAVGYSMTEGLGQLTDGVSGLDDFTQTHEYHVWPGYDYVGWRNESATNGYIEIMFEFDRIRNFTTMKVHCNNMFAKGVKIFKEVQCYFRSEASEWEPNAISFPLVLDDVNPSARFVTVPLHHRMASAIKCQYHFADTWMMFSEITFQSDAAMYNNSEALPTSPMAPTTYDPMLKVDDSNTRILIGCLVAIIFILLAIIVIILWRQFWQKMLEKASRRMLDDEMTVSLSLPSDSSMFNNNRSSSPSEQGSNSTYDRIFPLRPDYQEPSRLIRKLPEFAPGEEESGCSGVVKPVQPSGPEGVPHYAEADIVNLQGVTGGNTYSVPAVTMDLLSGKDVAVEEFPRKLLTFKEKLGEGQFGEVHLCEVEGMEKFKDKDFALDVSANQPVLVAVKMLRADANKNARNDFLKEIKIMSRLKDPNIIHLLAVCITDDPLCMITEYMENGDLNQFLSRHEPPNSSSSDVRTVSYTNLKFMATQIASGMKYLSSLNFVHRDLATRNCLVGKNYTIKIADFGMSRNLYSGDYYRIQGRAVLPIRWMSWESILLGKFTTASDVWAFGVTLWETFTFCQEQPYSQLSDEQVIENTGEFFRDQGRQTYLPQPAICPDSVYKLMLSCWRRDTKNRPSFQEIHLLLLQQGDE
The experiment can be described thus: Inhibition of DDR2 (unknown origin) at 0.5 uM relative to control.

Chain of Receptor-type tyrosine-protein kinase FLT3 (Homo sapiens) (P36888 whole entry, the tested form may be a part): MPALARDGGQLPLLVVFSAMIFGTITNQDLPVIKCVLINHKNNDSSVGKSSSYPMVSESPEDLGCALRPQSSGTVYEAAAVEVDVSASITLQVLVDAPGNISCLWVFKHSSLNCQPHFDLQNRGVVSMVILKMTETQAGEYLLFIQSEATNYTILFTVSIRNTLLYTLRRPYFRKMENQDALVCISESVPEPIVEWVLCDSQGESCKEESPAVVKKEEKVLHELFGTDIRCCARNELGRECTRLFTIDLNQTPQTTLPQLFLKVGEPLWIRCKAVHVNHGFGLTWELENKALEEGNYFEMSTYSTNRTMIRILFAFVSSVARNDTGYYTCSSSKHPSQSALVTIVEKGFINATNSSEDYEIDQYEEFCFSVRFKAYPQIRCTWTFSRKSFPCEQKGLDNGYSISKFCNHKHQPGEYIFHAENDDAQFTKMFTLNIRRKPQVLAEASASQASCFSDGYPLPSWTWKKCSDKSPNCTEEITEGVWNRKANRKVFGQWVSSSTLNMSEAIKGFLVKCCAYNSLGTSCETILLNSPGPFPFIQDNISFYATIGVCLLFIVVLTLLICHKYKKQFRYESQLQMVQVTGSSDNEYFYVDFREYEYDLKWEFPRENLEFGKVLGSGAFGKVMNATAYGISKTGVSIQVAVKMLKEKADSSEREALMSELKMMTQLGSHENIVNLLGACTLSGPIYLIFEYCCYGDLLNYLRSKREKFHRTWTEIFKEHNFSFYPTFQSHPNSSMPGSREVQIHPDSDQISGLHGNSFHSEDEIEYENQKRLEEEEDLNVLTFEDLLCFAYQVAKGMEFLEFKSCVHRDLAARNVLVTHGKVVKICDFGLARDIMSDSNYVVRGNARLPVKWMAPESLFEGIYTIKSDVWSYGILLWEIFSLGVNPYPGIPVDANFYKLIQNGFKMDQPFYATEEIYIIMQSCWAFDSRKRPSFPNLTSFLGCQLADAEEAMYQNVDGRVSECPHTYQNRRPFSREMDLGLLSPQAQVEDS
Chain of Protein-tyrosine kinase 6 (Homo sapiens) (Q13882 whole entry, looked up): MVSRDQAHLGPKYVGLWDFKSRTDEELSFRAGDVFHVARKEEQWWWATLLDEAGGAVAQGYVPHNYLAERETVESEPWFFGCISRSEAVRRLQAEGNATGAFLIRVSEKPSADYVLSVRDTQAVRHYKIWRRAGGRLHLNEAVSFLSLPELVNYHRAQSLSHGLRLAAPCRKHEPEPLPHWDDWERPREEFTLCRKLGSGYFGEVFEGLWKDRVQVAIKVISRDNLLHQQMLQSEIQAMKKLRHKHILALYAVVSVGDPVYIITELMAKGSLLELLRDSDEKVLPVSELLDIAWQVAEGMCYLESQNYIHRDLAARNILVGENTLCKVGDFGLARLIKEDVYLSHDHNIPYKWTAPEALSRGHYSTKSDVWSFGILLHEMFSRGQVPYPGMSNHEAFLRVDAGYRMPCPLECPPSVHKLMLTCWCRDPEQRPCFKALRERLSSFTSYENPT
Chain of Tyrosine-protein kinase Lck (Homo sapiens) (P06239 2-509 limits assumed): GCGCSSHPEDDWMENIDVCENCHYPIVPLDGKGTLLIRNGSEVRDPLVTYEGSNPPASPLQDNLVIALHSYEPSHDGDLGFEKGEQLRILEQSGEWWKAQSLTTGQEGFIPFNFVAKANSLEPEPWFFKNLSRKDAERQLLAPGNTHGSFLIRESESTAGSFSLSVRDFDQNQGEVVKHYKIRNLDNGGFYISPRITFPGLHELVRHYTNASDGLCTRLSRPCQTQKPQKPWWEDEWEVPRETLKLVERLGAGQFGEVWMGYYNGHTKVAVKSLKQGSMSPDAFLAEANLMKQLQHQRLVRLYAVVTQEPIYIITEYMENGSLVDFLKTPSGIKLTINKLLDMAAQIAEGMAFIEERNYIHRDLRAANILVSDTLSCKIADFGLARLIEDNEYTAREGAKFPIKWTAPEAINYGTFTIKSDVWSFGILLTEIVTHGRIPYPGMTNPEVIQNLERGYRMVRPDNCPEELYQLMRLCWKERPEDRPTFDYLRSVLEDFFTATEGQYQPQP

As for `CNC(=O)c1cc(Oc2ccc(NC(=O)c3nc(C(F)(F)F)sc3-c3ccc(F)cc3)cc2)ccn1`, the inhibition is 34% in experiment [1]; 87% in experiment [2]; 58% in experiment [3]; 67% in experiment [4]; 39% in experiment [5].

For the compound `CNC(=O)c1cc(Oc2ccc(NC(=O)c3nc(SC)oc3-c3ccc(F)cc3)cc2F)ccn1`, the inhibition in experiment [6] was 47%; in experiment [2] it was 77%; in experiment [3] it was 71%; in experiment [4] it was 69%; in experiment [5], 36%.

For the compound `CNC(=O)c1cc(Oc2ccc(NC(=O)c3nc(NC)sc3-c3ccc(F)cc3)cc2)ccn1`, the inhibition was determined as 54% in experiment [6]; 51% in experiment [1]; 53% in experiment [2]; 49% in experiment [3]; 62% in experiment [4].

As for `CNC(=O)c1cc(Oc2ccc(NC(=O)c3nc(SC)n(CCN(C)C)c3-c3ccc(F)cc3)cc2)ccn1`, the inhibition in experiment [6] is 26%; in experiment [1] it was 29%; in experiment [2] it was 44%; in experiment [3], 28%; in experiment [4], 58%; in experiment [5], 50%.

Turning to `CSc1nc(C(=O)Nc2ccc(Oc3cc4cnn(C)c4cc3Br)cc2)c(-c2ccc(F)cc2)o1`, the inhibition amounted to 48% in experiment [6], 19% in experiment [4] and 27% in experiment [5].

`CNC(=O)c1cc(Oc2ccc(NC(=O)c3nc(SC)[nH]c3-c3ccc(F)cc3)cc2)ccn1`: the inhibition was 97% in experiment [6], 97% in experiment [1], 90% in experiment [2] and 84% in experiment [3].

Regarding `CNC(=O)c1cc(Oc2ccc(NC(=O)c3nc(S(C)(=O)=O)sc3-c3ccc(F)cc3)cc2)ccn1`, the inhibition was found to be 61% in experiment [6], 70% in experiment [1], 34% in experiment [2] and 56% in experiment [5].

For `CNC(=O)c1cc(Oc2ccc(NC(=O)c3nc(SC)oc3-c3ccc(F)cc3)cc2)ccn1`, the inhibition in experiment [6] amounted to 58%; in experiment [2], 80%; in experiment [3] it was 77%; in experiment [4], 69%.

As to `CNC(=O)c1cc(Oc2ccc(NC(=O)c3n[nH]nc3-c3ccc(F)cc3)cc2)ccn1`, the inhibition in experiment [6] is 76%; in experiment [1], 25%; in experiment [2], 32%; in experiment [4], 27%; in experiment [5], 44%.
